According to patent US6140330A, “Thiazole derivative” (Otsuka Pharmaceutical Company, Limited, priority 1996, dated 2000):
Each block holds one molecule with its values, some of them ahead of it.

Legend:
[1] = target: protein kinase C (PKC); assay: Protein Kinase C (PKC) Inhibitory Activity; assay type: biochemical; conditions: rat brain PKC, H1 histone substrate, 10 μM [γ-32P]ATP, 30° C., 30 minutes
Protocol: (1) Protein Kinase C (PKC) Inhibitory Activity
Method for determining PKC activity:
The purification of PKC using rat's brain soluble fractions was carried out by a method of Kikkawa et al. (cf. Ushio Kikkawa, Yoshimi Takai, Ryoji Minakuchi, Sinichi Inohara and Yasutomi Nishizuka: The Journal of Biological Chemistry, vol. 257, No. 22, pp. 13341-13348 (1982)). PKC activity was determined by the transfer of radio activity from the [γ-^32 P] adenosine triphosphate (ATP) to H1 histone derived from calf thymus in the presence of 20 mM Tris-HCl buffer (pH 7.5), H1 histone derived from calf thymus (200 μg/ml), 10 μM [γ-^32P]ATP, 5 mM magnesium acetate, 8 μg/ml phosphatidyl serine, 2 μg/ml diacylglycerol and 0.3 mM Ca^2+. The test compound was dissolved in dimethylformamide, and the test compound solution was added to the assay system so that the final concentration thereof was adjusted to 0.8%. The reaction mixture was incubated at 30° C. for 30 minutes, and the reaction was quenched with 25% trichloroacetic acid. The acid-insoluble protein was collected on a nitrocellulose membrane by suction filtration. The radio activity of ^32 P was determined by scintillation counter. The PKC inhibitory activity of the test compounds was expressed by IC50, which is a concentration of the test compound to be required to reduce the PKC activity by 50%.

[2] = Mouse Collagen Arthritis; assay type: in vivo; conditions: orally once a day
Protocol: (2) Mouse Collagen Arthritis
Bovine II-type collagen (provided by Collagen Gijyutsu Kensyukai) (0.1%) was emulsified with Complete Fleund's adjuvant (CFA) (50%) (manufactured by DIFCO, Ltd.), and the emulsion thus obtained was injected intracutaneously to mice at the tail (primary sensitization). Three weeks later, bovine II-type collagen (0.1%) was injected intraperitoneally again to the mice (secondary sensitization). Three weeks later, the swelling of limbs of the mice was observed, and evaluated by four-degree as 0 to 3 each limb. The degree (0 to 3) each limb was added, and the results were used a score of the arthritis. That is, the maximum degree is 12 (degree 3×4 limb). The test compound was administered orally to the mice once a day, which started after two weeks from the primary sensitization.

[3] = system: anti-DNA antibody; assay: Mouse cGVHD (chronic graft-versus-host disease model), anti-DNA antibody in blood by ELISA; assay type: in vivo; conditions: mice; for amount of anti-DNA antibody in the blood: mean±s.e.
Protocol: (3) Mouse cGVHD (chromic Graft-versus-host disease model)
Female mice (DBA/2NCrj) were subjected to an operation of cervical vertebra dislocation, and the spleen was taken out to give the spleen cells preparation. The preparation were adjusted to 37.5×10^7 cells/ml, and administered to the BDF1 female mice on the tail vein at a dose of 200 μl per a mouse. Two weeks later, the blood was collected in the absence of heparin, and anti-DNA antibody therein was determined by ELISA.
The compound of Example 182 was administered orally to the mice at a dose of 30 to 50 mg/kg once a day for two weeks, and the effect of the test compound on cGVHD was determined.
The amount of anti-DNA antibody in the blood was determined with OD405. The amounts of anti-DNA antibody were 0.348±0.111 (mean±s.e.) in the control group, 0.255±0.062 (mean±s.e.) in the group treated with the compound of Example 182 at a dose of 30 mg/kg, and 0.094±0.026 (mean±s.e.) in the group treated with the compound of Example 182 at a dose of 50 mg/kg.
Further, the compound of Example 100 was also administered orally to the mice at 30 mg/kg once a day for two weeks, and the effect of the compound on cGVHD was also determined.
The amount of anti-DNA antibody in the blood was determined with OD405. The amounts of anti-DNA antibody were 0.258±0.084 (mean±s.e.) in the control group, and 0.177±0.061 (mean±s.e.) in the group treated with the compound of Example 100 at a dose of 30 mg/kg.

[4] = Rat Kidney Ischemic Re-perfusion Model; assay type: in vivo; conditions: for amount of creatine in the blood / amount of urea nitrogen in the blood: in mg/dL (unit assumed)
Protocol: (4) Rat Kidney Ischemic Re-perfusion Model
The right kidney of a SD male rat was taken out, and the left kidney artery was clumped, and then, re-perfused to give a kidney ischemic re-perfusion model. The effect of the compounds of Examples 71, 89 and 100 on the kidney ischemic re-perfusion model was estimated.
The compound of Example 71 was administered intravenously to the rat at a dose of 3 mg/kg 5 minutes before the ischemic. Twenty-four hours later, the blood was collected from the tail vein, and the amounts of creatine and urea nitrogen were determined. The amount of creatine in the blood was 2.19±0.21 (mean±s.e.) in the control group; 1.4±0.11 (mean±s.e.) in the group treated with the compound of Example 71, and the amount of urea nitrogen in the blood was 78.8±5.6 (mean s.e.) in the control group, and 54.1±5.0 (mean±s.e.) in the group treated with the compound of Example 71.
The compound of Example 89 was administered intravenously to the rat at a dose of 3 mg/kg 5 minutes before the ischemic and the re-perfusion. Forty-eight hours later, the blood was collected from the tail vein, and the amounts of creatine and urea nitrogen were determined. The amount of creatine in the blood was 4.31±0.53 (mean±s.e.) in the control group; 2.34±0.46 (mean±s.e.) in the group treated with the compound of Example 89, and the amount of urea nitrogen in the blood was 155.1±15.4 (mean±s.e.) in the control group, and 99.1±16.0 (mean±s.e.) in the group treated with the compound of Example 89.
The compound of Example 100 was administered orally to the rat at a dose of 30 mg/kg one hour before the ischemic. Forty-eight hours later, the blood was collected from the tail vein, and the amounts of creatine and urea nitrogen were determined. The amount of creatine in the blood was 2.48±0.59 (mean±s.e.) in the control group; 1.53±0.20 (mean±s.e.) in the group treated with the compound of Example 100, and the amount of urea nitrogen in the blood was 91.3±20.1 (mean±s.e.) in the control group, and 63.1±10.3 (mean±s.e.) in the group treated with the compound of Example 100.

[5] = Phorbol Ester (TPA)-induced Mouse Auricle Edema, Acanthosis Model; assay type: in vivo; conditions: mouse (ICR); for increase in the thickness of auricle: after 24 hours, control 215±40 μm, mean±s.e.
Protocol: (5) Phorbol Ester (TPA)-induced Mouse Auricle Edema, Acanthosis Model
A 200 μg/ml phorbol ester (TPA) (10 μl) was applied to the one side to the ear of a female mouse (ICR). Twenty-four hours later, the thickness of the auricle of the mouse was determined with using a dialthickness gage, and the increase in the thickness of auricle was calculated. A test compound was dissolved in acetone, and the solution of a test compound was applied to the both sides of the ear 30 minutes before the application of TPA.
The compound of Example 88 was applied to the ear at a dose of 20 μl of 0.3% or 1% solution. The increase in the thickness of auricle in the control group is 215±40 μm (mean±s.e.) after 24 hours, while 87±53 μm (mean±s.e.) in the group treated with the compound of Example 88 in 0.3%, and 67±23 μm (mean±s.e.) in the group treated with the compound of Example 88 in 1%.

[6] = Mouse Atopic Dermatitis Model (TNCB-induced increase in auricle thickness); assay type: in vivo; conditions: mice (Balb/c), once a day for two weeks
Protocol: (6) Mouse Atopic Dermatitis Model:
1% […] (TNCB), (10 μl) was applied to each side of the ear of female mice (Balb/c), once every two days for 24 days. Twenty-four days later, the mice were grouped, and the auricle thickness of the mouse was determined by using a dial thickness gage, and the increase in the thickness of auricle was calculated. The compounds of Examples 88 and 89 were dissolved in acetone in a concentration of 1%. The compound of Example 182 was dissolved in a mixture of acetone:methanol in a concentration of 0.75%. Twenty-four days after the beginning of the experiment, the solution of a test compound was applied to each side of the ear 30 minutes before and after the application of TNCB, once a day for two weeks.

- IC50 [1]: 800 nM
SMILES: Cc1c(OCC(=O)Nc2nc3ccccc3s2)ccc(C(=O)/C=C/C(=O)N2CCC(N3CCCN(C)CC3)CC2)c1C [Example 192]
- score of arthritis in comparison with the control mice ([2]; 50 mg/kg): significantly reduced

- IC50 [1]: 300 nM
SMILES: COc1cc(C(=O)/C=C/C(=O)N2CCC(N3CCCN(C)CC3)CC2)ccc1OCC(=O)Nc1nc2ccccc2s1 [Example 100]
- anti-DNA antibody in the blood compared with the control group ([3]; orally 30 mg/kg once a day for two weeks): reduced the anti-DNA antibody in the blood
- amount of anti-DNA antibody in the blood ([3]; orally 30 mg/kg once a day for two weeks, control 0.258±0.084): 0.177±0.061 OD405
- amounts of both of creatine and urea nitrogen compared with the control group ([4]; orally 30 mg/kg one hour before the ischemic, 48 hours later): reduced
- amount of creatine in the blood ([4]; orally 30 mg/kg one hour before the ischemic, 48 hours later, control 2.48±0.59, mean±s.e.): 1.53±0.20
- amount of urea nitrogen in the blood ([4]; orally 30 mg/kg one hour before the ischemic, 48 hours later, control 91.3±20.1, mean±s.e.): 63.1±10.3

- IC50 [1]: 800 nM
SMILES: CN1CCN(CC2CN(C(=O)/C=C/C(=O)c3ccc(OCC(=O)Nc4nc5ccccc5s4)c(F)c3)CCO2)CC1 (stereo not shown) [Example 71]
- amounts of both of creatine and urea nitrogen compared with the control group ([4]; i.v. 3 mg/kg 5 minutes before the ischemic, 24 hours later): significantly reduced
- amount of creatine in the blood ([4]; i.v. 3 mg/kg 5 minutes before the ischemic, 24 hours later, control 2.19±0.21, mean±s.e.): 1.4±0.11
- amount of urea nitrogen in the blood ([4]; i.v. 3 mg/kg 5 minutes before the ischemic, 24 hours later, control 78.8±5.6, mean±s.e.): 54.1±5.0

- IC50 [1]: 300 nM
SMILES: Cc1cc(OCC(=O)Nc2nc3ccccc3s2)ccc1C(=O)/C=C/C(=O)N1CCC(N2CCCN(C)CC2)CC1 [Example 197]
- score of arthritis in comparison with the control mice ([2]; 50 mg/kg): significantly reduced

- IC50 [1]: 100 nM
SMILES: COc1cc(C(=O)/C=C/C(=O)N2CCC(N3CCN(C)CC3)CC2)ccc1OCC(=O)Nc1nc2ccccc2s1 [Example 88]
- increase in auricle thickness compared with the control group ([5]; topical 20 μl of 0.3% or 1% solution): significantly reduced
- increase in the thickness of auricle ([5]; topical 20 μl of 0.3% solution): 87±53 μm
- increase in the thickness of auricle ([5]; topical 20 μl of 1% solution): 67±23 μm

- IC50 [1]: 300 nM
SMILES: COc1cc(C(=O)/C=C/C(=O)N2CCOC(CN3CCN(C)CC3)C2)ccc1OCC(=O)Nc1nc2ccccc2s1 (stereo not shown) [Example 89]
- amounts of both of creatine and urea nitrogen compared with the control group ([4]; i.v. 3 mg/kg 5 minutes before the ischemic and the re-perfusion, 48 hours later): significantly reduced
- amount of creatine in the blood ([4]; i.v. 3 mg/kg 5 minutes before the ischemic and the re-perfusion, 48 hours later, control 4.31±0.53, mean±s.e.): 2.34±0.46
- amount of urea nitrogen in the blood ([4]; i.v. 3 mg/kg 5 minutes before the ischemic and the re-perfusion, 48 hours later, control 155.1±15.4, mean±s.e.): 99.1±16.0
- inhibition of the increase in the auricle thickness ([6]; topical 1% in acetone): about 25%

- IC50 [1]: 80 nM
SMILES: COc1cc(OCC(=O)Nc2nc3ccccc3s2)ccc1C(=O)/C=C/C(=O)N1CCC(N2CCCN(C)CC2)CC1 [Example 182]
- score of arthritis in comparison with the control mice ([2]; 30 to 50 mg/kg): significantly reduced
- amount of anti-DNA antibody in the blood ([3]; orally 30 mg/kg once a day for two weeks, control 0.348±0.111): 0.255±0.062 OD405
- amount of anti-DNA antibody in the blood ([3]; orally 50 mg/kg once a day for two weeks, control 0.348±0.111): 0.094±0.026 OD405
- anti-DNA antibody in the blood compared with the control group ([3]; orally 30 to 50 mg/kg once a day for two weeks): reduced the anti-DNA antibody in the blood dose-dependently
- inhibition of the increase in the auricle thickness ([6]; topical 0.75% in acetone:methanol): about 25%

- IC50 [1]: 600 nM
SMILES: O=C(COc1ccc(C(=O)/C=C/C(=O)N2CCN(O)CC2)cc1C(F)(F)F)Nc1nc2ccccc2s1 [Example 160]
- score of arthritis in comparison with the control mice ([2]; 50 mg/kg): significantly reduced
